From US7674813B2, “Heterocyclic sulfonamide inhibitors of beta amyloid production containing an azole” (Wyeth, priority 2004, dated 2010)

Assays:
[1] = system: amyloid precursor protein (APP) proteolysis; assay: Repressor Release Assay (RRA); type: cell-based; set-up: key to RRA data (footnote symbols): **: Inactive due to toxicity; however, this compound, at 3-4 μM, reduces Aβ levels by 50% in CHO cells transfected with human APP695 as measured by ELISA without exhibiting toxicity.; ***: Inactive; however, this compound, at 1-4 μM, reduces Aβ levels by 50% in CHO cells transfected with human APP695 as measured by ELISA without exhibiting toxicity; settings: transfected CHO-K1 cells; for fold induction at 20 µg/mL: Cricetulus griseus, CHO-K1, all compounds tested at 20 μg/mL, luciferase activity over diluent control, read-out: RRA data (Fold increase of APPI)
Description: The beta amyloid inhibitory activity of many of the compounds of the present invention has been determined using the Repressor Release Assay (RRA). See, Table 3 below. A compound is considered active in RRA if it leads to at least a 1.5 fold increase in luciferase activity at 20 μg/mL and is non-toxic.
The compound is considered active in RRA if it leads to at least a 1.5 fold increase in APPI as measured by an increase in luciferase activity at 20 μg/mL and is non-toxic. Shuey, D. J., Sheiffele, P., Jones, D., Cockett, M. I., and Quinet, E. M. (1999) Repressor release: a useful tool for monitoring amyloid precursor protein (APP) proteolysis in mammalian cells. Society for Neuroscience Abstracts, Vol. 25, 29th Annual Meeting of Society for Neuroscience, Miami Beach, Fla., Oct. 23-28, 1999.
CHO—K1 cells are cultured in whole DMEM media (DMEM—High Glucose with 10% fetal bovine serum, 1% Non-essential Amino Acids, and 1% Penicillin-Streptomycin) at 37° C. with 5% CO2. Two million cells are plated into 10-cm dishes 24 hrs prior to transfection.
Transient transfections are completed as recommended by Gibco BRL using their Lipofectamine Plus system. First, 6 μg of pRSVO-luc and 6 μg of APP-lacI construct DNA are added to 460 μL Opti-Mem transfection media and incubated with 30 μL Plus reagent for 15 minutes. Then, a lipid mixture of 40 μL Lipofectamine reagent and 460 μL Opti-Mem transfection media is incubated with the DNA-Plus reagent mixture for 15 minutes. During the DNA-lipid incubation, the CHO—K1 cells are washed once and covered in 5.0 mL DMEM media without Penicillin-Streptomycin. The DNA-lipid preparation is then layered onto these cells and incubated at 37° C. overnight.
One and one half million transfected cells per well (100 μL total volume) are plated into sterile, opaque Packard 96-well Cultur-Plates in clear DMEM whole media (DMEM—without phenol red) and incubated at 37° C. with 5% CO2 for 3-5 hours.
Compounds are diluted using two different protocols; one protocol is used for compounds supplied neat (weighed powder in vial) and the other protocol is used for compounds supplied in solution (20 mM in DMSO in 96-well plates). For both protocols, 25 mM Hepes and 25 mM Hepes/1% DMSO are prepared fresh to be used as diluent. The Hepes/DMSO is used as the diluent control on all experimental plates.
The following Table 1 depicts the steps for compound dilution (the last step is the addition of compound to cells/media in tissue culture plate):
Because some compounds arrive in 96-well format at 20 mM, the following Table 2 represents the protocol for their dilution (an average molecular weight of these compounds was used to calculate these dilutions and as above, the last step is the addition of compound to cells/media in tissue culture plate):
Once compounds are diluted, they are applied in duplicate on cells in tissue culture plates (prepared above). Cells are incubated with compound at 37° C. with 5% CO2 for an additional 36-48 hours.
Luciferase assays (LucLite reagent, Packard) are performed and are read on a Packard TopCount instrument. Media is removed from each 96-well plate and replaced with 100 μL PBS per well (with Mg^2+ and Ca^2+). An equal volume (100 μL) of the LucLite lysis/substrate buffer is added to each well and the plates are sealed and mixed in the dark on a rotary shaker for 15-30 minutes at room temperature. Luciferase readings are then taken on the TopCount instrument. Measurements are expressed as relative light units (RLU) and are calculated and analyzed in MS Excel as follows:
Fold Increase: amount of luciferase activity (measured in relative light units) over diluent control.
SEM: standard error of the mean for fold increase.
Activity: A compound is considered active if it results in at least a 1.5 fold increase in luciferase activity at 20 μg/mL.
Toxicity: determined by loss of signal (<0.75 fold increase).

beta amyloid 40 = assay: Aβ40/42 ELISA Assay (Aβ40); type: cell-based; settings: Cricetulus griseus; CHO cells carrying the APP-REP-NL plasmid, 22 hours, sandwich ELISA
Description: (§1) Compounds are diluted from DMSO stocks to 2 μM and below in a cell culture medium. Compounds are then applied to CHO cells carrying the APP-REP-NL plasmid [Sudhir et. al, J. Biolog. Chem. 267:25602-25608 (1992)] for a period of 22 hours. After the conditioning period, medium is collected, diluted in assay buffer containing protein, and samples, controls, and synthetic peptide standards are incubated on a prepared ELISA plate. Using a sandwich ELISA with antibodies specifically directed against the carboxyl terminus of beta amyloid 40 or 42 (analogous to the method reported by Haugabook et al., J. Neurosci. Methods 108:171-179 (2001) but using goat anti-mouse IgG1 (source: Southern Biotech) as the anchor, 6E10 as the capture antibody (Source: SENETEK), rabbit antiAβ40 and antiAβ42 (source: QCB) and APL-donkey anti-rabbit IgG (H+L, source: Southern Biotech) as the detection antibody), the effect of the compound treatment on the cellular production of extracellular beta amyloid is quantified. Cells treated with compound are subsequently incubated in cell culture medium containing MTS-formazan. After a short incubation period, MTS/medium containing plates are read in a spectrophotometer to determine the extent to which compound toxicity affected the cell's metabolism and ability to synthesize beta amyloid.
(§2) A. Test Samples: compound samples are supplied as 20 mM stock solutions in a 100% DMSO solution.
(§3) B. APP-REP-NL cells: Qualified cell lines are carried from week to week using 1:100 dilutions and are cultured in DMEM supplemented with 1× antibiotic/antimycotic, 200 ug/ml of G418 antibiotic, and 10% certified fetal calf serum. Cells are also banked in liquid nitrogen. Periodically, beta amyloid production is assessed, and cells are either kept in culture or replaced with progenitors at full expression.
(§4) C. Antibodies: From certified lots that have already been qualified in this assay. Antibodies are stored in small frozen aliquots at −80° C. that are thawed and used.
(§5) A compound is considered active if it has an EC50 for Aβ40 reduction of <100 μM and no toxicity at doses in the vicinity of the EC50.

beta amyloid 42 = assay: Aβ40/42 ELISA Assay (Aβ42); type: cell-based; settings: CHO cells carrying the APP-REP-NL plasmid, 22 hours, sandwich ELISA; for EC50: Cricetulus griseus
Description: as §1, §2, §3, §4, §5

Compound	EC50 (beta amyloid 40) [µM]	EC50 (beta amyloid 42) [µM]	melting point [°C]	fold induction at 20 µg/mL [1]	Effect on Aβ42 production (beta amyloid 42)	RRA data (footnote symbols) ([1]; tested at 20 μg/mL)
CCC(CC)C(NS(=O)(=O)c1ccc(Cl)s1)c1nccn1Cc1ccc(OC)cc1 (centres unmarked) [Example 29, 5-Chloro-N-{2-ethyl-1-[1-(4-methoxybenzyl)-1H-imidazol-2-yl]butyl}thiophene-2-sulfonamide]	50.7	52.5		1.9		
CCC(CC)C(NS(=O)(=O)c1ccc(Cl)cc1)c1ccnn1-c1ccccc1 (centres unmarked) [Example 36, 4-Chloro-N-[2-ethyl-1-(1-phenyl-1H-pyrazol-5-yl)butyl]benzenesulfonamide]	23		135 to 136.4		increase	
CCC(CC)C(NS(=O)(=O)c1ccc(C#N)cc1)c1ccnn1-c1ccccc1 (centres unmarked) [Example 37, 4-Cyano-N-[2-ethyl-1-(1-phenyl-1H-pyrazol-5-yl)butyl]benzenesulfonamide]	85.2		134.6 to 136.6		increase	
CCC(CC)C(NS(=O)(=O)c1cc(Cl)c(Cl)s1)c1ccnn1-c1ccccc1 (centres unmarked) [Example 38, 4,5-Dichloro-N-[2-ethyl-1-(1-phenyl-1H-pyrazol-5-yl)butyl]thiophene-2-sulfonamide]	13.3		116 to 119.6		increase	
CCC(CC)C(NS(=O)(=O)c1ccc(Cl)c(Cl)c1)c1ccnn1-c1ccccc1 (centres unmarked) [Example 39, 3,4-Dichloro-N-[2-ethyl-1-(1-phenyl-1H-pyrazol-5-yl)butyl]benzenesulfonamide]	25.5		56 to 66		increase	
CCC(CC)C(c1ccnn1-c1ccccc1)N(C)S(=O)(=O)c1ccc(C#N)cc1 (centres unmarked) [Example 43, 4-Cyano-N-[2-ethyl-1-(1-phenyl-1H-pyrazol-5-yl)butyl]-N-methylbenzenesulfonamide]	47.9		37.8 to 54		increase	
CCC(CC)C(c1ccnn1-c1ccccc1)N(C)S(=O)(=O)c1ccc(Cl)cc1 (centres unmarked) [Example 44, 4-Chloro-N-[2-ethyl-1-(1-phenyl-1H-pyrazol-5-yl)butyl]-N-methylbenzenesulfonamide]	35.7		86.5 to 89			
CCC(CC)C(c1ccnn1-c1ccccc1)N(C)S(=O)(=O)c1cc(Cl)c(Cl)s1 (centres unmarked) [Example 45, 4,5-Dichloro-N-[2-ethyl-1-(1-phenyl-1H-pyrazol-5-yl)butyl]-N-methylthiophene-2-sulfonamide]	33.6		99 to 100.4		increase	

The next lines start with results.

EC50 (beta amyloid 40) [µM]	EC50 (beta amyloid 42) [µM]	melting point [°C]	Compound	fold induction at 20 µg/mL [1]	Effect on Aβ42 production (beta amyloid 42)	RRA data (footnote symbols) ([1]; tested at 20 μg/mL)
3.5	4.4		Cc1cccc(-n2nccc2C(NS(=O)(=O)c2ccc(Cl)s2)C(C)C)c1 (centres unmarked) [Example 16, 5-Chloro-N-{2-methyl-1-[1-(3-methylphenyl)-1H-pyrazol-5-yl]propyl}thiophene-2-sulfonamide]	4		
5.9	10.7		CCC(CC)C(NS(=O)(=O)c1ccc(Cl)s1)c1ccnn1-c1ccc(C(F)(F)F)cc1 (centres unmarked) [Example 18, 5-Chloro-N-(2-ethyl-1-{1-[4-(trifluoromethyl)phenyl]-1H-pyrazol-5-yl}butyl)thiophene-2-sulfonamide]	2.3		
2.4	4.3		CCC(CC)C(NS(=O)(=O)c1ccc(Cl)s1)c1ncnn1Cc1ccc(OC(F)(F)F)cc1 (centres unmarked) [Example 20, 5-Chloro-N-(2-ethyl-1-{1-[4-(trifluoromethoxy)benzyl]-1H-1,2,4-triazol-5-yl}butyl)thiophene-2-sulfonamide]	9.8		
1.5	1.5		CCC(CC)C(NS(=O)(=O)c1ccc(Cl)s1)c1ncnn1Cc1ccccc1 (centres unmarked) [Example 22, N-[1-(1-Benzyl-1H-1,2,4-triazol-5-yl)-2-ethylbutyl]-5-chlorothiophene-2-sulfonamide]	7.2		
5.2	9.8		CCC(CC)C(NS(=O)(=O)c1ccc(Cl)s1)c1nccn1Cc1ccc(O)cc1 (centres unmarked) [Example 30, 5-Chloro-N-{2-ethyl-1-[1-(4-hydroxybenzyl)-1H-imidazol-2-yl]butyl}thiophene-2-sulfonamide]	8.6		
13.3			COc1ccc(Cn2cccc2C(NS(=O)(=O)c2ccc(Cl)s2)C(C)C)cc1 (centres unmarked) [Example 32, 5-Chloro-N-{1-[1-(4-methoxybenzyl)-1H-pyrrol-2-yl]-2-methylpropyl}thiophene-2-sulfonamide]	6.6	increase	
2.6	4.3		CCC(CC)C(NS(=O)(=O)c1ccc(Cl)s1)c1ccnn1OCc1ccccc1 (centres unmarked) [Example 33, N-{1-[1-(Benzyloxy)-1H-pyrazol-5-yl]-2-ethylbutyl}-5-chlorothiophene-2-sulfonamide]			**
5.8	10.1	159 to 160	O=S(=O)(NC(c1ccc(F)cc1)c1ccnn1-c1ccc(F)cc1)c1ccc(Cl)s1 (centres unmarked) [Example 34, 5-Chloro-N-{(4-fluorophenyl) [1-(4-fluorophenyl)-1H-pyrazol-5-yl]methyl}thiophene-2-sulfonamide]			
4.1	7.5	120 to 120.7	CCC(CC)C(NS(=O)(=O)c1ccc(Br)s1)c1ccnn1-c1ccccc1 (centres unmarked) [Example 40, 5-Bromo-N-[2-ethyl-1-(1-phenyl-1H-pyrazol-5-yl)butyl]thiophene-2-sulfonamide]			
